Measurements published in PubChem BioAssay AID330 (DTP/NCI, 2004).
Several values for one entry are separate records, joined by “and”; a condition that tells them apart may be missing. Equal values may be shown once. Toxic doses and inconclusive results are not listed. How the source made its calls: active means survival T/C of 150% or more; inactive means T/C below 125% in these data.

Test system: P388 leukemia ip, CD2F1 mice, survival T/C
Experiment: NCI In Vivo Anticancer Drug Screen. Data for tumor model P388 Leukemia (intraperitoneal) in CD2F1 (CDF1) mice
Conditions: endpoint: median survival time, higher = longer survival
Outline: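 Mice carrying the transplanted tumor received test compound or vehicle. Survival was recorded in each group, and the value is the treated-group measurement divided by that of the vehicle-treated control group.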

[1] = dose: 25.0 mg/kg/injection, schedule: Q01DX005 (ip), vehicle: saline with Tween-80
[2] = dose: 50.0 mg/kg/injection, schedule: Q01DX005 (ip), vehicle: saline with Tween-80
[3] = dose: 50.0 mg/kg/injection, schedule: Q01DX009 (ip), vehicle: saline with Tween-80
[4] = dose: 100.0 mg/kg/injection, schedule: Q01DX009 (ip), vehicle: saline with Tween-80
[5] = dose: 200.0 mg/kg/injection, schedule: Q01DX009 (ip), vehicle: saline with Tween-80
[6] = dose: 50.0 mg/kg/injection, schedule: Q01DX005 (ip), vehicle: Klucel (hydroxypropylcellulose) (HPC)
[7] = dose: 100.0 mg/kg/injection, schedule: Q01DX005 (ip), vehicle: Klucel (hydroxypropylcellulose) (HPC)
[8] = dose: 200.0 mg/kg/injection, schedule: Q01DX005 (ip), vehicle: Klucel (hydroxypropylcellulose) (HPC)
[9] = dose: 100.0 mg/kg/injection, schedule: Q01DX005 (ip), vehicle: saline with Tween-80
[10] = dose: 200.0 mg/kg/injection, schedule: Q01DX005 (ip), vehicle: saline with Tween-80
[11] = dose: 60.0 mg/kg/injection, schedule: Q01DX005 (ip), vehicle: Klucel (hydroxypropylcellulose) (HPC)
[12] = dose: 120.0 mg/kg/injection, schedule: Q01DX005 (ip), vehicle: Klucel (hydroxypropylcellulose) (HPC)
[13] = dose: 240.0 mg/kg/injection, schedule: Q01DX005 (ip), vehicle: Klucel (hydroxypropylcellulose) (HPC)
[14] = dose: 12.5 mg/kg/injection, schedule: Q01DX009 (ip), vehicle: saline with Tween-80
[15] = dose: 25.0 mg/kg/injection, schedule: Q01DX009 (ip), vehicle: saline with Tween-80
[16] = dose: 60.0 mg/kg/injection, schedule: Q01DX005 (ip), vehicle: saline
[17] = dose: 120.0 mg/kg/injection, schedule: Q01DX005 (ip), vehicle: saline
[18] = dose: 100.0 mg/kg/injection, schedule: Q01DX001 (ip), vehicle: saline with Tween-80
[19] = dose: 200.0 mg/kg/injection, schedule: Q01DX001 (ip), vehicle: saline with Tween-80
[20] = dose: 400.0 mg/kg/injection, schedule: Q01DX001 (ip), vehicle: saline with Tween-80
[21] = dose: 60.0 mg/kg/injection, schedule: Q01DX005 (ip), vehicle: saline with Tween-80
[22] = dose: 120.0 mg/kg/injection, schedule: Q01DX005 (ip), vehicle: saline with Tween-80
[23] = dose: 25.0 mg/kg/injection, schedule: Q01DX009 (ip), vehicle: other
[24] = dose: 50.0 mg/kg/injection, schedule: Q01DX009 (ip), vehicle: other
[25] = dose: 100.0 mg/kg/injection, schedule: Q01DX009 (ip), vehicle: other
[26] = dose: 240.0 mg/kg/injection, schedule: Q01DX005 (ip), vehicle: saline with Tween-80

Measured: T/C

CC1CCCC(C)N1Cc1ccccc1 (stereo not given)
inactive: [1] 93 % of control | [2] 93 % of control

CN(C=O)S(C)(=O)=O
inactive: [3] 100 % of control | [4] 100 % of control | [5] 100 % of control

CC(C)(C)OC(=O)CN1C(=O)CCC1=O
inactive: [6] 99 % of control | [7] 100 % of control | [8] 106 % of control

O=[N+]([O-])c1ccc(Sc2c3ccccc3nc3ccccc23)nc1
inactive: [1] 108 % of control | [2] 100 % of control | [9] 106 % of control | [10] 100 % of control

CN1C2=NCCN2C(=O)c2cc(Cl)ccc21
inactive: dose: 50.0 mg/kg/injection, schedule: Q01DX009 (ip), vehicle: Klucel (hydroxypropylcellulose) (HPC) 105 % of control | dose: 100.0 mg/kg/injection, schedule: Q01DX009 (ip), vehicle: Klucel (hydroxypropylcellulose) (HPC) 98 % of control

CC(=O)Nc1nc(CC(N)C(=O)O)c[se]1 (stereo not given)
inactive: [6] 97 % of control | [7] 97 % of control | [8] 97 % of control

COCCOC(=O)C1=C(O)c2ccccc2S(=O)(=O)N1C
inactive: [11] 106 % of control | [12] 109 % of control | [13] 120 % of control

CCOC(=O)C1C(c2ccc(N(C)C)cc2)c2cc3c(cc2OC1(C)N1CCCC1)OCO3 (stereo not given)
inactive: [11] 100 % of control | [12] 96 % of control | [13] 93 % of control

CC(C)(C)C(=O)CC(=O)C(F)(F)C(F)(F)C(F)(F)F.[Ag]
inactive: dose: 6.25 mg/kg/injection, schedule: Q01DX009 (ip), vehicle: saline with Tween-80 119 % of control | [14] 119 % of control | [15] 114 % of control

O=C1CSC(c2ccc(Cl)c(Cl)c2)N1c1nncs1 (stereo not given)
inactive: [2] 103 % of control | [9] 93 % of control | [10] 99 % of control

COC(=O)C1=CCOc2c1c(C(=O)OC)nn2C
inactive: [2] 97 % of control | [9] 98 % of control | [10] 96 % of control

O=C(CC(O)(C(F)(F)F)C(F)(F)F)c1cc(CC(=O)C(O)(C(F)(F)F)C(F)(F)F)cc(CC(=O)C(O)(C(F)(F)F)C(F)(F)F)c1
inactive: [15] 97 % of control | [3] 103 % of control | [4] 100 % of control | [5] 105 % of control | dose: 400.0 mg/kg/injection, schedule: Q01DX009 (ip), vehicle: saline with Tween-80 115 % of control

CCn1c2ccccc2c2cc(NC(=O)N3CCCCC3)ccc21
inactive: [2] 95 % of control | [9] 95 % of control | [10] 90 % of control

CC(C)COC1OCCCC1C(OCC(C)C)C(C)C (stereo not given)
inactive: dose: 100.0 mg/kg/injection, schedule: Q01DX009 (ip), vehicle: saline 108 % of control | dose: 200.0 mg/kg/injection, schedule: Q01DX009 (ip), vehicle: saline 113 % of control | dose: 400.0 mg/kg/injection, schedule: Q01DX009 (ip), vehicle: saline 99 % of control

C/C=C\C(/C=C/C)(C(=O)OCCN(C)C)C(/C=C\C)(/C=C/C)C(=O)OCCN(C)C (stereo not given)
inactive: [2] 100 % of control | [9] 100 % of control | [10] 91 % of control

Cc1ccc(C)[nH][nH]c(N)n1
inactive: dose: 25.0 mg/kg/injection, schedule: Q01DX009 (ip), vehicle: water 99 % of control | dose: 50.0 mg/kg/injection, schedule: Q01DX009 (ip), vehicle: water 101 % of control | dose: 100.0 mg/kg/injection, schedule: Q01DX009 (ip), vehicle: water 101 % of control

Nc1c2c(=O)[nH]c(=O)c2c(N)c2c(=O)c3ccccc3c(=O)c12
inactive: [16] 103 % of control | [17] 104 % of control | dose: 240.0 mg/kg/injection, schedule: Q01DX005 (ip), vehicle: saline 105 % of control

Cc1ccc(C(=O)/C(N)=C\c2c[nH]c3ccccc23)cc1
inactive: [18] 104 % of control | [19] 100 % of control | [20] 98 % of control

O=C1OC(OC/C(Br)=C(/Br)COC2OC(=O)C(Cl)=C2Cl)C(Cl)=C1Cl (stereo not given)
inactive: [21] 106 % of control | [22] 108 % of control

CN1c2ccccc2S(=O)(=O)n2nnnc21
inactive: [18] 101 % of control | [19] 101 % of control | [20] 97 % of control

CC(=O)OC1c2c(C)coc2C(=O)C23OC2CCC(C)C13C (stereo not given)
inactive: dose: 5.0 mg/kg/injection, schedule: Q01DX009 (ip), vehicle: saline with Tween-80 100 % of control | dose: 10.0 mg/kg/injection, schedule: Q01DX009 (ip), vehicle: saline with Tween-80 102 % of control | dose: 20.0 mg/kg/injection, schedule: Q01DX009 (ip), vehicle: saline with Tween-80 102 % of control | dose: 40.0 mg/kg/injection, schedule: Q01DX009 (ip), vehicle: saline with Tween-80 96 % of control

Nc1cc2c(cn1)[nH]c1ccccc12
inactive: dose: 12.5 mg/kg/injection, schedule: Q01DX009 (ip), vehicle: other 108 % of control | [23] 101 % of control | [24] 108 % of control | [21] 97 % of control | [25] 106 % of control | [22] 106 % of control

CCOC(=O)c1cnc2c(C)ccc(C)c2c1Nc1ccc2c(c1)OCO2
inactive: dose: 60.0 mg/kg/injection, schedule: Q01DX005 (ip), vehicle: Klucel + Tween-80 92 % of control | dose: 120.0 mg/kg/injection, schedule: Q01DX005 (ip), vehicle: Klucel + Tween-80 90 % of control | dose: 240.0 mg/kg/injection, schedule: Q01DX005 (ip), vehicle: Klucel + Tween-80 91 % of control

Nc1ncncc1C(C1=C(O)COC1=O)C1=C(O)COC1=O
inactive: [21] 98 % of control | [22] 100 % of control | [26] 98 % of control

CSCC1(CCO)OCCO1
inactive: [15] 100 % of control | [3] 94 % of control | [4] 94 % of control

Cc1c(C#N)c(=O)[nH]c2ccc([N+](=O)[O-])cc12
inactive: [21] 94 % of control | [22] 93 % of control | [26] 100 % of control

Cc1cc(CN2CCN(CCO)CC2)c(O)c(CN2CCN(CCO)CC2)c1
inactive: [16] 105 % of control | [17] 102 % of control

CCCOC(=O)/C=C(\I)C(=O)OCCC
inactive: [14] 119 % of control | [15] 110 % of control | [3] 110 % of control and 92 % of control

Nc1nc(N)c2c(n1)=NC(c1cccc3ccccc13)N=2 (stereo not given)
inactive: [23] 101 % of control | [24] 106 % of control | [25] 102 % of control | dose: 200.0 mg/kg/injection, schedule: Q01DX009 (ip), vehicle: other 99 % of control | dose: 400.0 mg/kg/injection, schedule: Q01DX009 (ip), vehicle: other 106 % of control

CSC1(C)C(=O)Nc2cc([N+](=O)[O-])ccc21 (stereo not given)
inactive: [15] 100 % of control | [3] 99 % of control | [4] 113 % of control
